“And” between values parts separate entries of the source, which are not always exact repeats. Identical values can stand only once.
Biological target: T1, human Branched Chain Amino Acid Aminotransferase cytosolic form (hBCATc) (Homo sapiens, UniProt P54687)
T1 construct: inferred from purification on a Ni-charged chelating column with imidazole elution; made in house; host or cells: E. coli BL21(DE3)
T1 sequence (P54687 1-386): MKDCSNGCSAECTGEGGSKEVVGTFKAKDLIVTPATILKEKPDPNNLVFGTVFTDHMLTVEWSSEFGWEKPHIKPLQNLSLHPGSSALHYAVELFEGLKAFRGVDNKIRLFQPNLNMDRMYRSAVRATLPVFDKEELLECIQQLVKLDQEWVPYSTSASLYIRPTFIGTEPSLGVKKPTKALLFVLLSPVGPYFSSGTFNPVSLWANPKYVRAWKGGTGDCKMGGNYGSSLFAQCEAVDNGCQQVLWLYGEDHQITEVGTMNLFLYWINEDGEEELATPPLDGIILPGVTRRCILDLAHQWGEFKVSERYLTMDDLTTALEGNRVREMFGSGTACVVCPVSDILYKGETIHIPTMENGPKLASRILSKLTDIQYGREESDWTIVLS
Assay: In vitro coupled enzyme assay, hBCATc
Format: biochemical
Conditions: 37° C.; for IC50: 25 mM phosphate buffer pH 7.8, coupled glutamate dehydrogenase assay, read-out: hBCATc I50; for inhibition at 20 µM: @ 20 μM compound, pH 7.8 coupled assay, read-out: hBCATc Inhibit % @ 20 μM
Experimental: In vitro enzyme assay—human Branched Chain Amino Acid Aminotransferase cytosolic form (hBCATc) and mitochondrial form (hBCATm) were assayed at 37° C. in 25 mM phosphate buffer pH 7.8. In addition, 2 mM DTT and 12.5 mM EDTA were added to the assay mixture. A coupling enzyme assay was used to monitor the production of glutamate. The formation of NADH from NAD+at […] was followed on a 96-well plate Molecular Devices plate reader. The following components were used in this coupled assay: 4 mM ADP, 1 mM NAD+, 750 μM L-Leucine, 500 μM (α-ketoglutarate, 10 μM pyridoxal phosphate, 1 unit glutamate dehydrogenase, and 1.25 μg of the appropriate BCAT enzyme. Inhibitions by compounds were assayed by adding various concentrations to this coupled assay procedure as a DMSO stock up to a 5% v/v DMSO/buffer ratio. Data is shown in Table 1.
Enzyme Preparation—humanBCATc was expressed in BL21(DE3) cells. A growing culture of cells was induced with 1 mM IPTG at room temperature overnight. These cells were harvested by centrifugation at 10,000 g for 20 minutes. The supernatant was discarded, and the cells were stored at −80° C. until needed. The protein was purified by the following method. The cell paste was resuspended in extraction buffer (0.1 M phosphate, pH 8.0, with 0.01 M Tris-HCL and 5 mM TCEP and then lysed on a French Press at 1000 psi. The lysate was centrifuged at 10,000 g for 15 minutes, and the pellet was discarded. The supernatant was loaded onto a Hitrap Chelating column previously charged with 0.1 M NiSO4 and washed with 3 to 4 column volumes of extraction buffer. The column was then washed with 0.01 Tris, pH 7.5, 10% glycerol, 150 mM NaCl, 5 mM TCEP for two column volumes. The column was then further washed with two column volumes of 0.1 M phosphate, pH 6.0, 0.01 M Tris, 10% glycerol and 750 mM NaCl. Finally, the column was washed with two column volumes of the same buffer plus 50 mM imidazole. The BCAT enzyme was then eluted with the same buffer but with 350 mM imidazole. The eluant was then dialyzed overnight against 10 mM phosphate buffer pH 8.0, 10% glycerol, and 5 mM TCEP. The dialyzed protein was then loaded onto a Q-sepharose column and eluted using a salt gradient. Active fractions were collected and further purified on a Superose-12 column to yield pure BCAT protein.

IC50	inhibition at 20 µM [%]	Structure (SMILES)
4.1 µM	–	COC(=O)/C=C1\SC(Nc2c(Cl)cccc2Cl)=NC1=O [Example 1, [2-(2,6-Dichloro-phenylamino)-4-oxo-4H-thiazol-5-ylidene]-acetic Acid Methyl Ester]
52.5 µM	–	CCOC(=O)/C=C1\SC(Nc2c(Cl)cccc2Cl)=NC1=O [Example 2, [2-(2,6-Dichloro-phenylamino)-4-oxo-4H-thiazol-5-ylidene]-acetic Acid Ethyl Ester]
68.6 µM and 36.9 µM	–	CC(C)(C)OC(=O)/C=C1\SC(Nc2c(Cl)cccc2Cl)=NC1=O [Example 3, [2-(2,6-Dichloro-phenylamino)-4-oxo-4H-thiazol-5-ylidene]-acetic Acid Tert-butyl Ester]
43.9 µM and 29.6 µM	–	COC(=O)/C=C1\SC(Nc2ccccc2C)=NC1=O [Example 4, [2-(2-Methyl-phenylamino)-4-oxo-4H-thiazol-5-ylidene]-acetic Acid Methyl Ester]
3.1 µM and 1.9 µM	–	CNC(=O)/C=C1\SC(Nc2c(Cl)cccc2Cl)=NC1=O [Example 6, [2-(2,6-Dichloro-phenylamino)-4-oxo-4H-thiazol-5-ylidene]-N-methyl-acetamide]
13.1 µM and 3.15 µM	–	CCNC(=O)/C=C1\SC(Nc2c(Cl)cccc2Cl)=NC1=O [Example 7, [2-(2,6-Dichloro-phenylamino)-4-oxo-4H-thiazol-5-ylidene]-N-ethyl-acetamide]
35.7 µM and 17.4 µM	–	CCCNC(=O)/C=C1\SC(Nc2c(Cl)cccc2Cl)=NC1=O [Example 8, [2-(2,6-Dichloro-phenylamino)-4-oxo-4H-thiazol-5-ylidene]-N-propyl-acetamide]
31.7 µM	–	CONC(=O)/C=C1\SC(Nc2c(Cl)cccc2Cl)=NC1=O [Example 10, [2-(2,6-Dichloro-phenylamino)-4-oxo-4H-thiazol-5-ylidene]-N-methoxy-acetamide]
82.7 µM	–	COCCNC(=O)/C=C1\SC(Nc2c(Cl)cccc2Cl)=NC1=O [Example 16, 2-[2-(2,6-Dichloro-phenylamino)-4-oxo-4H-thiazol-5-ylidene]-N-(2-methoxy-ethyl)-acetamide]
12.8 µM	–	O=C1N=C(Nc2c(Cl)cccc2Cl)S/C1=C\C(=O)N1CCCCC1 [Example 17, 2-(2,6-Dichloro-phenylamino)-5-(2-oxo-2-piperidine-1-yl-ethylidene)-thiazol-4-one]
64.1 µM	–	CCN1CCN(C(=O)/C=C2\SC(Nc3c(Cl)cccc3Cl)=NC2=O)CC1 [Example 18, 2-(2,6-Dichloro-phenylamino)-5-[2-(4-ethyl-piperazin-1-yl)-2-oxo-ethylidene)-thiazol-4-one]
55 µM	–	O=C(/C=C1\SC(Nc2c(Cl)cccc2Cl)=NC1=O)NCCCN1CCCC1 [Example 19, 2-[2-(2,6-Dichloro-phenylamino)-4-oxo-4H-thiazol-5-ylidene]-N-(3-pyrrolidin-1-yl-propyl)-acetamide]
65.9 µM	–	CC(C)NC(=O)/C=C1\SC(Nc2c(Cl)cccc2Cl)=NC1=O [Example 20, 2-[2-(2,6-Dichloro-phenylamino)-4-oxo-4H-thiazol-5-ylidene]-N-isopropyl-acetamide]
13.8 µM	–	O=C1N=C(Nc2c(Cl)cccc2Cl)S/C1=C\C(=O)N1CCCC1 [Example 21, 2-(2,6-Dichloro-phenylamino)-5-(2-oxo-2-pyrrolidin-1-yl-ethylidene)-thiazol-4-one]
22.6 µM	–	O=C(/C=C1\SC(Nc2c(Cl)cccc2Cl)=NC1=O)NC1CCCCC1 [Example 22, N-Cyclohexyl-2-[2-(2,6-dichloro-phenylamino)-4-oxo-4H-thiazol-5-ylidene]-acetamide]
39.8 µM	–	COC(CNC(=O)/C=C1\SC(Nc2c(Cl)cccc2Cl)=NC1=O)OC [Example 23, 2-[2-(2,6-Dichloro-phenylamino)-4-oxo-4H-thiazol-5-ylidene]-N-(2,2-dimethoxy-ethyl)-acetamide]

IC50	inhibition at 20 µM [%]	Structure (SMILES)
8.97 µM	–	CC1CC(C)CN(C(=O)/C=C2\SC(Nc3c(Cl)cccc3Cl)=NC2=O)C1 (stereo not shown) [Example 24, 2-(2,6-Dichloro-phenylamino)-5-[2-(3,5-dimethyl-piperidin-1-yl)-2-oxo-ethylidene)-thiazol-4-one]
65.1 µM	–	CN(C)C1CCN(C(=O)/C=C2\SC(Nc3c(Cl)cccc3Cl)=NC2=O)C1 (stereo not shown) [Example 25, 2-(2,6-Dichloro-phenylamino)-5-[2-(3-dimethylamino-pyrrolidin-1-yl)-2-oxo-ethylidene)-thiazol-4-one]
56.3 µM	–	O=C(/C=C1\SC(Nc2c(Cl)cccc2Cl)=NC1=O)NCCOCCO [Example 26, 2-[2-(2,6-Dichloro-phenylamino)-4-oxo-4H-thiazol-5-ylidene]-N-[2-(2-hydroxy-ethoxy)-ethyl]-acetamide]
41.2 µM	–	CSCCCNC(=O)/C=C1\SC(Nc2c(Cl)cccc2Cl)=NC1=O [Example 27, 2-[2-(2,6-Dichloro-phenylamino)-4-oxo-4H-thiazol-5-ylidene]-N-(3-methylsulfanyl-propyl)-acetamide]
66.9 µM	–	O=C(/C=C1\SC(Nc2c(Cl)cccc2Cl)=NC1=O)NCC(O)CO (stereo not shown) [Example 28, 2-[2-(2,6-Dichloro-phenylamino)-4-oxo-4H-thiazol-5-ylidene]-N-(2,3-dihydroxy-propyl)-acetamide]
31.1 µM	–	C=C(C)CNC(=O)/C=C1\SC(Nc2c(Cl)cccc2Cl)=NC1=O [Example 29, 2-[2-(2,6-Dichloro-phenylamino)-4-oxo-4H-thiazol-5-ylidene]-N-(2-methyl-allyl)-acetamide]
16.6 µM	–	O=C(/C=C1\SC(Nc2c(Cl)cccc2Cl)=NC1=O)NC1CCCC1 [Example 30, N-Cyclopentyl-2-[2-(2,6-dichloro-phenylamino)-4-oxo-4H-thiazol-5-ylidene]-acetamide]
11.2 µM	–	CCCN(CC1CC1)C(=O)/C=C1\SC(Nc2c(Cl)cccc2Cl)=NC1=O [Example 31, N-Cyclopropylmethyl-2-[2-(2,6-dichloro-phenylamino)-4-oxo-4H-thiazol-5-ylidene]-N-propyl-acetamide]
89.8 µM	–	CN1CCC(N(C)C(=O)/C=C2\SC(Nc3c(Cl)cccc3Cl)=NC2=O)C1 (stereo not shown) [Example 32, 2-[2-(2,6-Dichloro-phenylamino)-4-oxo-4H-thiazol-5-ylidene]-N-methyl-N-(1-methyl-pyrrolidin-3-yl)-acetamide]
40.4 µM	–	O=C(/C=C1\SC(Nc2c(Cl)cccc2Cl)=NC1=O)NCCOc1ccccc1 [Example 33, 2-[2-(2,6-Dichloro-phenylamino)-4-oxo-4H-thiazol-5-ylidene]-N-(2-phenoxy-ethyl)-acetamide]
75.6 µM	–	CNCCCCCCCCN(C)C(=O)/C=C1\SC(Nc2c(Cl)cccc2Cl)=NC1=O [Example 34, 2-[2-(2,6-Dichloro-phenylamino)-4-oxo-4H-thiazol-5-ylidene]-N-methyl-N-(8-methylamino-octyl)-acetamide]
–	130	O=C(/C=C1\SC(Nc2c(Cl)cccc2Cl)=NC1=O)NCc1ccc(Cl)cc1 [Example 35, N-(4-Chloro-benzyl)-2-[2-(2,6-dichloro-phenylamino)-4-oxo-4H-thiazol-5-ylidene]-acetamide]
–	34	CC(C)CCC(C)NC(=O)/C=C1\SC(Nc2c(Cl)cccc2Cl)=NC1=O (stereo not shown) [Example 37, 2-[2-(2,6-Dichloro-phenylamino)-4-oxo-4H-thiazol-5-ylidene]-N-(1,4-dimethyl-pentyl)-acetamide]
–	33	CC(C)CC(C)NC(=O)/C=C1\SC(Nc2c(Cl)cccc2Cl)=NC1=O (stereo not shown) [Example 38, 2-[2-(2,6-Dichloro-phenylamino)-4-oxo-4H-thiazol-5-ylidene]-N-(1 ,3-dimethyl-butyl)-acetamide]
–	39	O=C(/C=C1\SC(Nc2c(Cl)cccc2Cl)=NC1=O)NC1CCCCCC1 [Example 39, N-Cycloheptyl-2-[2-(2,6-dichloro-phenylamino)-4-oxo-4H-thiazol-5-ylidene]-acetamide]

— patent US6632831B2, “Branched chain amino acid-dependent aminotransferase inhibitors and their use in the treatment of neurodegenerative diseases” (Pfizer Inc., priority 2001, dated 2003)
